From US8779004B2, “Stable emulsion formulations” (Amgen, Inc., priority 2006, dated 2014)

System: rabbit ear vein
Experiment: Acute local venous toxicity / irritation in the rabbit ear vein (REV)
Assay type: in vivo
Design: Erythema / Edema: scale not given here
Source text: This Example illustrates the protective effect of the formulations of the invention as measured by irritation in the rabbit ear vein (REV). A typical protocol for evaluation of the local tolerance for formulations was as follows.
Dosing of animals. The rabbits used were male New Zealand rabbits weighing approximately 2.5 to 4 kg. The rabbits were acclimatized for a period of 10 days following receipt before the start of the study. The rabbits were randomized into groups based on the number of formulations to be studied. Typically 3 rabbits were used per group.
For each group of rabbits, the formulation containing the drug to be tested was dosed in the right marginal ear vein, with the corresponding placebo being dosed at the same time in the left marginal ear vein. The placebos were prepared such that they matched the formulation composition, and the technique of dosing for the drug formulations and the placebo formulations were kept the same. Typical dosing volumes ranged from 1 mL/kg to 5 mL/kg. The formulations were either dosed as (a) bolus injection wherein the entire dosing volume was administered within 5 minutes; (b) 30 minute infusion; or (c) a 2 hour infusion. The formulations were administered through appropriately sized syringes and catheters. The injection sites were marked with indelible ink for identification at each observation period. The rabbits were dosed based upon the Day 1 body weight.
Observation of animals. Each animal was observed cage side at least twice daily for mortality/morbundity. Each animal received a detailed clinical observation once prior to randomization, once prior to dosage administration and once daily thereafter.
Any abnormalities were recorded as they were observed. Observations for local irritation were scored according to the following scale
At each interval the area of irritation (if present) was also measured. The actual length and width in mm was recorded.
On day 3 the animals were euthanized and the tissues from the Pinna of the left and right ear, and any gross lesions (if present) of the ear or ear vein were collected. Histopathology was performed on the collected tissues. After fixation, the pinna was tripped into a total of 4 sections of 1 cm each; one of which included the deposition site (location of the end of the catheter in the ear) and one from approximately 1-, 2-, and 3-cm downstream from the deposition site. Each section included skin, cartilage, vein and other soft tissue. These tissues were then embedded in paraffin, sectioned and stained with hematoxylin and eosin, and examined via light microscopy.

[1] = emulsion with DEA buffer 0.05%, pH 9, Bolus dose, 2 mg/kg (conc. 10 mg/mL), 0 h
[2] = emulsion with DEA buffer 0.05%, pH 9, Bolus dose, 2 mg/kg (conc. 10 mg/mL), 48 h
[3] = emulsion with TRIS buffer 5 mM, pH 9, Bolus dose, 2 mg/kg (conc. 10 mg/mL), 0 h
[4] = emulsion with TRIS buffer 5 mM, pH 9, Bolus dose, 2 mg/kg (conc. 10 mg/mL), 48 h
[5] = emulsion with TRIS buffer 20 mM, pH 9, 2-hour infusion, 2 mg/kg (conc. 0.5 mg/mL), 0 h
[6] = emulsion with TRIS buffer 20 mM, pH 9, 2-hour infusion, 2 mg/kg (conc. 0.5 mg/mL), 48 h
[7] = solution in acetate mannitol buffer, pH 4, 2 hour infusion, 2 mg/kg (conc. 0.5 mg/mL), 0 h
[8] = solution in acetate mannitol buffer, pH 4, 2 hour infusion, 2 mg/kg (conc. 0.5 mg/mL), 48 h
[9] = solution in acetate mannitol buffer, pH 4, Bolus dose, 2 mg/kg (conc. 0.5 mg/mL), 0 h
[10] = solution in acetate mannitol buffer, pH 4, Bolus dose, 2 mg/kg (conc. 0.5 mg/mL), 48 h
[11] = solution in acetate mannitol buffer, pH 4, Bolus dose, 2 mg/kg (conc. 1 mg/mL), 0 h
[12] = solution in acetate mannitol buffer, pH 4, Bolus dose, 2 mg/kg (conc. 1 mg/mL), 48 h

Q: Which local venous toxicity (administered IV as a solution, acetate mannitol buffer at pH 4) does the source give for `C[C@@H](NCCCc1cccc(C(F)(F)F)c1)c1cccc2ccccc12` [Cinacalcet, N-(1-(R)-(1-naphthyl)ethyl]-3-[3-(trifluoromethyl)phenyl]-1-aminopropane] here?
A: mild to moderate

Q: What about the “local venous toxicity effects” value (cinacalcet-containing emulsions, compared with solution) of the same molecule?
A: greatly reduced or completely eliminated

Q: What about the tolerability (emulsion buffered with either TRIS or DEA, dosed as bolus) of the same molecule?
A: well tolerated

Q: And the tolerability (emulsion containing TRIS dosed as an infusion)?
A: well tolerated

Q: And the Edema [1]?
A: 0.0 ± 0.0

Q: And the Erythema [1]?
A: 0.3 ± 0.6

Q: What about the Edema [2] of the same molecule?
A: 0.0 ± 0.0

Q: And the Erythema [2]?
A: 0.0 ± 0.0

Q: And the Histopathology (emulsion with DEA buffer 0.05%, pH 9, Bolus dose, observed for both placebo and cinacalcet emulsions)?
A: Mild to moderate perivascular acute

Q: And the Edema [3]?
A: 0.0 ± 0.0

Q: And the Erythema [3]?
A: 0.0 ± 0.0

Q: What about the Edema [4] of the same molecule?
A: 0.0 ± 0.0

Q: And the Erythema [4]?
A: 0.0 ± 0.0

Q: What about the Histopathology (emulsion with TRIS buffer 5 mM, pH 9, Bolus dose, observed for both placebo and cinacalcet emulsions) of the same molecule?
A: Minimal to mild perivascular acute

Q: And the Histopathology (emulsion with TRIS buffer 20 mM, pH 9, 2-hour infusion, 2 mg/kg (conc. 0.5 mg/mL))?
A: lipid emulsion was well tolerated as a 2 hour

Q: And the Edema [5]?
A: 0.0 ± 0.0

Q: What about the Erythema [5] of the same molecule?
A: 0.0 ± 0.0

Q: And the Edema [6]?
A: 0.0 ± 0.0

Q: And the Erythema [6]?
A: 0.0 ± 0.0

Q: And the Histopathology (solution in acetate mannitol buffer, pH 4, 2 hour infusion, 2 mg/kg (conc. 0.5 mg/mL))?
A: mild to severe acute, necrotizing inflammation

Q: And the Edema [7]?
A: 0.0 ± 0.0

Q: What about the Erythema [7] of the same molecule?
A: 0.0 ± 0.0

Q: What about the Edema [8] of the same molecule?
A: 3.3 ± 1.2

Q: And the Erythema [8]?
A: 4.0 ± 0.0

Q: And the Histopathology (solution in acetate mannitol buffer, pH 4, Bolus dose, 2 mg/kg)?
A: Mnimal to mild infiltrates of mixed

Q: And the Edema [9]?
A: 0.0 ± 0.0

Q: What about the Erythema [9] of the same molecule?
A: 0.0 ± 0.0

Q: And the Edema [10]?
A: 1.7 ± 0.6

Q: And the Erythema [10]?
A: 2.7 ± 0.6

Q: What about the Edema [11] of the same molecule?
A: 0.0 ± 0.0

Q: What about the Erythema [11] of the same molecule?
A: 0.0 ± 0.0

Q: What about the Edema [12] of the same molecule?
A: 2.0 ± 1.7

Q: What about the Erythema [12] of the same molecule?
A: 2.7 ± 0.6

Q: And the Histopathology (solution in acetate mannitol buffer, pH 4, Bolus dose, at the higher dose)?
A: Mild to severe effects seen at the higher

Q: What about the “tolerability when administered IV” value (solution, acetate mannitol buffer at pH 4) of the same molecule?
A: poorly tolerated
